Experimental data reported in US11685716B2, “Plant growth inhibiting agent, and plant growth inhibiting method using same” (NATIONAL UNIVERSITY CORPORATION KUMAMOTO UNIVERSITY, priority 2017, dated 2023).

What was measured:
[1] = tested on: thale cress; experiment: Plant growth inhibition index, thale cress on agar medium in test tube (Evaluation 8, 9); assay type: in vivo, thale cress (Col-0, wild-type strain); design: key: 0: No effect; 1: Growth of the root part was inhibited 50% or less compared with non-treated area.; 2: Growth of the root part was inhibited 50% or more compared with non-treated area.; 3: Growth of the root part was substantially inhibited.; 4: Germination was inhibited; conditions: Concentration 200 μM, 8 days (Evaluation 9, Table 2)
Procedure: 0.44% (w/v) Mixed salts for Murashige and Skoog medium (SIGMA), 1% (w/v) sucrose, and 0.05% (w/v) MES were mixed, and pH of the solution was adjusted to pH 5.7 with potassium hydroxide. 1.5% (w/v) Agar was added to the mixture, which was sterilized at 120° C. in an autoclave for 20 minutes. The test compound and dimethylformamide containing 1.5% of polyoxyethylenesorbitan monolaurate for a control experiment, were added at this stage and blended. In addition, the compound was used by adjusting an addition concentration to 200 μM. Four ml each of the medium was dispensed in sterile glass test tube ([…] RIKA GLASS CO., LTD.) to prepare agar medium.
As a plant material, Col-0, which is a wild-type strain of thale cress, was used.
Seeds, after their surfaces were sterilized, were planted on the agar medium, and the growth of the plant was carried out in a plant incubator (CFH-405) under the conditions of an illuminance of 3 at 23° C. with constant light. The plants on the agar medium were grown for 8 days in the chamber.
The plant growth inhibition effect of the compounds was evaluated by conversion to indexes according to the following investigation criteria.

[2] = tested on: Ragweed; experiment: Seed treatment, plant growth inhibition index (Evaluation 11); assay type: in vivo; design: key: 0: No effect; 1: Growth of the root part was inhibited 50% or less compared with non-treated area.; 2: Growth of the root part was inhibited 50% or more compared with non-treated area.; 3: Growth of the root part was substantially inhibited.; 4: Germination was inhibited
Procedure: (§1) The compound of the present invention (2 mg) was dissolved in a 1.5% Tween dimethylformamide solution (100 μL) to use as a test chemical solution.
(§2) Eight mL of sterilized water was poured to a cherry cup (100Φ×45 mm) lined with a filter paper, subsequently 81.1 μL of the sterilized water was removed, and 81.1 μL of the test chemical solution was added such that a final concentration of the compound was 800 μM.
(§3) Further, cherry cups were similarly prepared such that a final concentration of the compound was 200 μM.
(§4) Seeds (Japanese millet: 3 grains, velvet leaf: 6 grains, Ragweed: 8 grains, morning glory: 2 grains) were planted on the filter paper in the cherry cups, followed by growing the plants in a thermostatic chamber at 25° C. under a light-dark cycle in which a light period is 12 hours and a dark period is 12 hours for 6 days.
(§5) In addition, with regards to the compound (9a) and the compound (9b), the plants were tested for 7 days.
(§6) Plant growth inhibition effects of the compounds were evaluated by conversion to indexes according to the following investigation criteria.

[3] = tested on: morning glory; experiment: as above; assay type: in vivo; design: key: 0: No effect; 1: Growth of the root part was inhibited 50% or less compared with non-treated area.; 2: Growth of the root part was inhibited 50% or more compared with non-treated area.; 3: Growth of the root part was substantially inhibited.; 4: Germination was inhibited
Procedure: as §1, §2, §3, §4, §5, §6

[4] = tested on: Japanese millet; experiment: as above; assay type: in vivo; design: key: 0: No effect; 1: Growth of the root part was inhibited 50% or less compared with non-treated area.; 2: Growth of the root part was inhibited 50% or more compared with non-treated area.; 3: Growth of the root part was substantially inhibited.; 4: Germination was inhibited
Procedure: as §1, §2, §3, §4, §5, §6

[5] = tested on: velvet leaf; experiment: as above; assay type: in vivo; design: key: 0: No effect; 1: Growth of the root part was inhibited 50% or less compared with non-treated area.; 2: Growth of the root part was inhibited 50% or more compared with non-treated area.; 3: Growth of the root part was substantially inhibited.; 4: Germination was inhibited
Procedure: as §1, §2, §3, §4, §5, §6

[6] = tested on: Japanese bristlegrass; experiment: Spray treatment to stems and leaves, killing weed index (Evaluation 10); assay type: in vivo; conditions: 2000 g active ingredient per hectare, sprayed liquid amount 250 L/ha, two weeks later
Procedure: (§7) POA allyl phenyl ether (4.1 parts by weight), POE-POP glycol (1 part by weight), POE sorbitan laurate (0.8 parts by weight), glycerin (2.6 parts by weight), dimethylformamide (65.9 parts by weight), N-methylpyrrolidone (5.1 parts by weight), cyclohexanone (15.4 parts by weight), and aromatic hydrocarbon (5.1 parts by weight) were mixed and dissolved to prepare an emulsion. The compounds of the present invention (4 mg) were dissolved in this emulsion (100 μL) to prepare a test emulsion. In addition, POA means “polyoxyalkylene”, POE means “polyoxyethylene”, and POP means “polyoxypropylene.”
(§8) Four hundred μL of the above test emulsion was diluted with 7600 μL of water to use as a test spray liquid.
(§9) Further, 400 μL of the above test emulsion was diluted with 1600 μL of a 1% Tween20 aqueous solution to use as a spray liquid for a small amount spray test.
(§10) For a comparative spray liquid, 53 μL of a 30% pendimethalin emulsion (Gogosan emulsion: manufactured by BASF Japan) as a control pesticides was diluted with 7947 μL of water. Further, for a comparative spray liquid for a small amount spray test, 53 μL of the 30% pendimethalin emulsion was diluted with 1947 μL of water.
(§11) A 150 cm^2 pot was filled with a soil, seeds of each purple amaranth, Japanese bristlegrass, southern crabgrass, and velvet leaf were sown on the surface layer, lightly covered with a soil and grown in a greenhouse. When each plant grew to a plant height of 2 to 9 cm, the test spray liquid was sprayed to the stem and leaf parts with a small spraying machine such that an active ingredient amount was 2000 g per hectare and a sprayed liquid amount was 1000 L per hectare.
(§12) Similarly, the test spray liquid for a small amount spray test was sprayed to the stem and leaf parts with a small spraying machine such that an active ingredient amount was 2000 g per hectare and a sprayed liquid amount was 250 L per hectare.
(§13) Two weeks later, the above-ground grass weight in non-treated areas and the above-ground grass weight in treated areas, by the weed, were measured to calculate a killing weed rate by the following calculating formula.
(§14) (a) Calculating Formula of Weeding Rate Killing weed rate (%)=(above-ground grass weight in non-treated area−above-ground grass weight in treated area)/(above-ground grass weight in non-treated area)×100 (b) Killing Weed Indexes
(§15) The obtained killing weed rates were evaluated, such that a killing weed index was “10” when a killing weed rate is 100%, as “9” when a killing weed rate is 99% to 90%, “8” when a killing weed rate is 89% to 80%, “7” when a killing weed rate is 79% to 70%, “6” when a killing weed rate is 69% to 60%, “5” when a killing weed rate is 59% to 50%, “4” when a killing weed rate is 49% to 40%, “3” when a killing weed rate is 39% to 30%, “2” when a killing weed rate is 29% to 20%, “1” when a killing weed rate is 19% to 10%, and “0” when a killing weed rate is 9% to 0%.

[7] = tested on: velvet leaf; experiment: as above; assay type: in vivo; conditions: 2000 g active ingredient per hectare, two weeks later
Procedure: as §7, §8, §9, §10, §11, §12, §13, §14, §15

[8] = tested on: southern crabgrass; experiment: as above; assay type: in vivo; conditions: 2000 g active ingredient per hectare, two weeks later
Procedure: as §7, §8, §9, §10, §11, §12, §13, §14, §15

[9] = tested on: purple amaranth; experiment: as above; assay type: in vivo; conditions: 2000 g active ingredient per hectare, two weeks later
Procedure: as §7, §8, §9, §10, §11, §12, §13, §14, §15

[10] = 200 μM, 6 days (9a, 9b: 7 days)
[11] = sprayed liquid amount 1000 L/ha

## CCCCCOn1cc(-c2ccsc2)cc1C(=O)O [Compound 9j]
[1]
  Index: 2 (Growth of the root part was inhibited 50% or more compared with non-treated area.)
[2]; [10]
  plant growth inhibition index, Ragweed: 8 (Growth of the stem and leave parts was inhibited 80% or more compared with non-treated area.)
[2]; 800 μM, 6 days
  plant growth inhibition index, Ragweed: 9 (Growth of the stem and leave parts was inhibited 90% or more compared with non-treated area.)
[3]; [10]
  plant growth inhibition index, Morning glory: 3 (Growth of the stem and leave parts was inhibited 30% or more compared with non-treated area, or growth of the only root part was inhibited 60% or more compared with non-treated area.)
[3]; 800 μM, 6 days
  plant growth inhibition index, Morning glory: 5 (Growth of the stem and leave parts was inhibited 50% or more compared with non-treated area, or growth of the only root part was inhibited 100% or more compared with non-treated area.)
[4]; [10]
  plant growth inhibition index, Japanese millet: 4 (Growth of the stem and leave parts was inhibited 40% or more compared with non-treated area, or growth of the only root part was inhibited 80% or more compared with non-treated area.)
[4]; 800 μM, 6 days
  plant growth inhibition index, Japanese millet: 3 (Growth of the stem and leave parts was inhibited 30% or more compared with non-treated area, or growth of the only root part was inhibited 60% or more compared with non-treated area.)
[5]; [10]
  plant growth inhibition index, Velvet leaf: 0
[5]; 800 μM, 6 days
  plant growth inhibition index, Velvet leaf: 5 (Growth of the stem and leave parts was inhibited 50% or more compared with non-treated area, or growth of the only root part was inhibited 100% or more compared with non-treated area.)

## CCCCCOn1cc(-c2cccnc2)cc1C(=O)O [Compound 9i]
[1]
  Index: 2 (Growth of the root part was inhibited 50% or more compared with non-treated area.)
[2]; [10]
  plant growth inhibition index, Ragweed: 0
[2]; 800 μM, 6 days
  plant growth inhibition index, Ragweed: 4 (Growth of the stem and leave parts was inhibited 40% or more compared with non-treated area, or growth of the only root part was inhibited 80% or more compared with non-treated area.)
[3]; [10]
  plant growth inhibition index, Morning glory: 0
[3]; 800 μM, 6 days
  plant growth inhibition index, Morning glory: 10
[4]; [10]
  plant growth inhibition index, Japanese millet: 3 (Growth of the stem and leave parts was inhibited 30% or more compared with non-treated area, or growth of the only root part was inhibited 60% or more compared with non-treated area.)
[4]; 800 μM, 6 days
  plant growth inhibition index, Japanese millet: 4 (Growth of the stem and leave parts was inhibited 40% or more compared with non-treated area, or growth of the only root part was inhibited 80% or more compared with non-treated area.)
[5]; [10]
  plant growth inhibition index, Velvet leaf: 0
[5]; 800 μM, 6 days
  plant growth inhibition index, Velvet leaf: 6 (Growth of the stem and leave parts was inhibited 60% or more compared with non-treated area.)

## CCCCCCCCCOn1cccc1C(=O)N(C)C [Compound 9g]
[1]
  Index: 3
[2]; [10]
  plant growth inhibition index, Ragweed: 5 (Growth of the stem and leave parts was inhibited 50% or more compared with non-treated area, or growth of the only root part was inhibited 100% or more compared with non-treated area.)
[2]; 800 μM, 6 days
  plant growth inhibition index, Ragweed: 7 (Growth of the stem and leave parts was inhibited 70% or more compared with non-treated area.)
[3]; [10]
  plant growth inhibition index, Morning glory: 0
[3]; 800 μM, 6 days
  plant growth inhibition index, Morning glory: 0
[4]; [10]
  plant growth inhibition index, Japanese millet: 3 (Growth of the stem and leave parts was inhibited 30% or more compared with non-treated area, or growth of the only root part was inhibited 60% or more compared with non-treated area.)
[4]; 800 μM, 6 days
  plant growth inhibition index, Japanese millet: 4 (Growth of the stem and leave parts was inhibited 40% or more compared with non-treated area, or growth of the only root part was inhibited 80% or more compared with non-treated area.)
[5]; [10]
  plant growth inhibition index, Velvet leaf: 3 (Growth of the stem and leave parts was inhibited 30% or more compared with non-treated area, or growth of the only root part was inhibited 60% or more compared with non-treated area.)
[5]; 800 μM, 6 days
  plant growth inhibition index, Velvet leaf: 3 (Growth of the stem and leave parts was inhibited 30% or more compared with non-treated area, or growth of the only root part was inhibited 60% or more compared with non-treated area.)

## CCC(CC)Nc1c([N+](=O)[O-])cc(C)c(C)c1[N+](=O)[O-] [pendimethalin, reference compound]
[6]
  killing weed index, Japanese bristlegrass: 6 (“6” when a killing weed rate is 69% to 60%)
[7]; sprayed liquid amount 250 L/ha
  killing weed index, Velvet leaf: 5 (“5” when a killing weed rate is 59% to 50%)
[7]; [11]
  killing weed index, Velvet leaf: 4 (“4” when a killing weed rate is 49% to 40%)
[8]; sprayed liquid amount 250 L/ha
  killing weed index, Southern crabgrass: 6 (“6” when a killing weed rate is 69% to 60%)
[8]; [11]
  killing weed index, Southern crabgrass: 6 (“6” when a killing weed rate is 69% to 60%)
[9]; sprayed liquid amount 250 L/ha
  killing weed index, Purple amaranth: 6 (“6” when a killing weed rate is 69% to 60%)
[9]; [11]
  killing weed index, Purple amaranth: 0 (“0” when a killing weed rate is 9% to 0%)
